Target: human autotaxin (ATX) (Homo sapiens (Human), UniProt Q13822)
Test: Human Autotaxin Assay
Format: biochemical
Settings: concentrated conditioned media from Hep3B cells; LPC substrate, choline release
Procedure: ATX activity is assayed in concentrated conditioned media from Hep3B human hepatocellular carcinoma cells by measuring the amount of choline released from the substrate, lysophosphatidylcholine (LPC) as it is cleaved to LPA. Conditioned media is collected from confluent Hep3B cells and concentrated 20-fold using Centriprep-30 filter devices (Millipore). To assay for autotaxin inhibition, 10-20 μL of the concentrated conditioned media is incubated with 2.5 μL of a test compound in DMSO and 72.5-82.5 μL lyso-PLD buffer (100 mM Tris pH 9, 500 mM NaCl, 5 mM MgCl2, 5 mM CaCl2, 0.05% Triton X-100 in the presence or absence of 0.2% fatty-acid-free human serum albumin) for 15 min at 37° C. After the 15 min incubation, 5 uL of 2 mM LPC (14:0; Avanti Polar Lipids Cat#855575C) diluted in lyso-PLD buffer is added for a final concentration of 100 uM and the incubation continues for 1.5-3 hours at 37° C.

IC50 | Structure (SMILES)
≤ 500 nM | Cc1c(Sc2cccc(C(=O)O)c2)c2ccc(Cl)c(F)c2n1CC(=O)N1CC2(CC2)c2ccccc21 [Compound 1-31, 3-((6-Chloro-7-fluoro-2-methyl-1-(2-oxo-2-(spiro[cyclopropane-1,3′-indolin]-1′-yl)ethyl)-1H-indol-3-yl)thio)benzoic acid]
≤ 500 nM | Cc1c(Sc2cccc(C(=O)O)c2)c2ccc(Cl)c(F)c2n1CC(=O)N1CC2(CC2)c2cc(F)ccc21 [Compound 1-32, 3-((6-Chloro-7-fluoro-1-(2-(5′-fluorospiro[cyclopropane-1,3′-indolin]-1′-yl)-2-oxoethyl)-2-methyl-1H-indol-3-yl)thio)benzoic acid]
≤ 500 nM | Cc1c(Sc2cccc(C(=O)O)c2)c2ccc(Cl)c(F)c2n1CC(=O)N1CC2(CCC2)c2c(F)cccc21 [Compound 1-33, 3-((6-Chloro-7-fluoro-1-(2-(4′-fluorospiro[cyclobutane-1,3′-indolin]-1′-yl)-2-oxoethyl)-2-methyl-1H-indol-3-yl)thio)benzoic acid]
≤ 500 nM | Cc1c(Sc2cccc(C(=O)O)c2)c2ccc(Cl)c(F)c2n1CC(=O)N1CC(C)(C)c2ccc(F)cc21 [Compound 1-34, 3-((6-Chloro-7-fluoro-1-(2-(6-fluoro-3,3-dimethylindolin-1-yl)-2-oxoethyl)-2-methyl-1H-indol-3-yl)thio)benzoic acid]
≤ 500 nM | Cc1c(Sc2cccc(C(=O)O)c2)c2ccc(Cl)c(F)c2n1CC(=O)N1CCCC2(CNC(=O)C2)C1 (stereo not shown) [Compound 1-35, 3-((6-Chloro-7-fluoro-2-methyl-1-(2-oxo-2-(3-oxo-2,7-diazaspiro[4.5]decan-7-yl)ethyl)-1H-indol-3-yl)thio)benzoic acid]
≤ 500 nM | Cc1c(Sc2cccc(C(=O)O)c2)c2ccc(Cl)c(F)c2n1CC(=O)N1CCCc2ccccc21 [Compound 1-36, 3-((6-Chloro-1-(2-(3,4-dihydroquinolin-1(2H)-yl)-2-oxoethyl)-7-fluoro-2-methyl-1H-indol-3-yl)thio)benzoic acid]
≤ 500 nM | Cc1c(Sc2cccc(C(=O)O)c2)c2ccc(Cl)c(F)c2n1CC(=O)N1CCC(O)(C(F)(F)F)C1 (stereo not shown) [Compound 1-37, 3-((6-Chloro-7-fluoro-1-(2-(3-hydroxy-3-(trifluoromethyl)pyrrolidin-1-yl)-2-oxoethyl)-2-methyl-1H-indol-3-yl)thio)benzoic acid]
≤ 500 nM | Cc1c(Sc2cccc(C(=O)O)c2)c2ccc(Cl)c(F)c2n1CC(=O)N1CC2(CCCC2)c2ccccc21 [Compound 1-39, 3-((6-Chloro-7-fluoro-2-methyl-1-(2-oxo-2-(spiro[cyclopentane-1,3′-indolin]-1′-yl)ethyl)-1H-indol-3-yl)thio)benzoic acid]
500 to 3000 nM | Cc1c(Sc2cccc(C(=O)O)c2)c2ccc(Cl)c(F)c2n1CC(=O)N1CCC2(CC1)CC2C(=O)N1CCCC1 (stereo not shown) [Compound 1-40, 3-((6-Chloro-7-fluoro-2-methyl-1-(2-oxo-2-(1-(pyrrolidine-1-carbonyl)-6-azaspiro[2.5]octan-6-yl)ethyl)-1H-indol-3-yl)thio)benzoic acid]
≤ 500 nM | Cc1c(Sc2cccc(C(=O)O)c2)c2ccc(Cl)c(F)c2n1CC(=O)N1CCC2(CC1)CC(=O)N2 [Compound 1-41, 3-((6-Chloro-7-fluoro-2-methyl-1-(2-oxo-2-(2-oxo-1,7-diazaspiro[3.5]nonan-7-yl)ethyl)-1H-indol-3-yl)thio)benzoic acid]
≤ 500 nM | Cc1c(Sc2cccc(C(=O)O)c2)c2ccc(Cl)c(F)c2n1CC(=O)N1CC(N2CCC(F)(F)C2)C1 [Compound 1-42, 3-((6-Chloro-1-(2-(3-(3,3-difluoropyrrolidin-1-yl)azetidin-1-yl)-2-oxoethyl)-7-fluoro-2-methyl-1H-indol-3-yl)thio)benzoic acid]
≤ 500 nM | Cc1c(Sc2cccc(C(=O)O)c2)c2ccc(Cl)c(F)c2n1CC(=O)N1CCC(C)(C)CC1 [Compound 1-44, 3-((6-Chloro-1-(2-(4,4-dimethylpiperidin-1-yl)-2-oxoethyl)-7-fluoro-2-methyl-1H-indol-3-yl)thio)benzoic acid]
≤ 500 nM | Cc1c(Sc2cccc(C(=O)O)c2)c2ccc(Cl)c(F)c2n1CC(=O)N1CCC2(CC1)CNC(=O)C2 [Compound 1-45, 3-((6-Chloro-7-fluoro-2-methyl-1-(2-oxo-2-(3-oxo-2,8-diazaspiro[4.5]decan-8-yl)ethyl)-1H-indol-3-yl)thio)benzoic acid]
≤ 500 nM | Cc1c(Sc2cccc(C(=O)O)c2)c2ccc(Cl)c(F)c2n1CC(=O)N1CCC2(CCOCC2)C1 [Compound 1-46, 3-((6-Chloro-7-fluoro-2-methyl-1-(2-oxo-2-(8-oxa-2-azaspiro[4.5]decan-2-yl)ethyl)-1H-indol-3-yl)thio)benzoic acid]
≤ 500 nM | Cc1c(Sc2cccc(C(=O)O)c2)c2ccc(Cl)c(F)c2n1CC(=O)N1CC(N2CCS(=O)(=O)CC2)C1 [Compound 1-48, 3-((6-Chloro-1-(2-(3-(1,1-dioxidothiomorpholino)azetidin-1-yl)-2-oxoethyl)-7-fluoro-2-methyl-1H-indol-3-yl)thio)benzoic acid]
≤ 500 nM | Cc1c(Sc2cccc(C(=O)O)c2)c2ccc(Cl)c(F)c2n1CC(=O)N1CC2(CNC(=O)C2)C1 [Compound 1-49, 3-((6-Chloro-7-fluoro-2-methyl-1-(2-oxo-2-(7-oxo-2,6-diazaspiro[3,4]octan-2-yl)ethyl)-1H-indol-3-yl)thio)benzoic acid]
≤ 500 nM | Cc1c(Sc2cccc(C(=O)O)c2)c2ccc(Cl)c(F)c2n1CC(=O)N1CC2C(C1)C2C(N)=O [Compound 1-51, 3-((1-(2-((1R,5S,6R)-6-Carbamoyl-3-azabicyclo[3.1.0]hexan-3-yl)-2-oxoethyl)-6-chloro-7-fluoro-2-methyl-1H-indol-3-yl)thio)benzoic acid]
≤ 500 nM | Cc1c(Sc2cccc(C(=O)O)c2)c2ccc(Cl)c(F)c2n1CC(=O)N1CC(C)(O)C1 [Compound 1-52, 3-((6-Chloro-7-fluoro-1-(2-(3-hydroxy-3-methylazetidin-1-yl)-2-oxoethyl)-2-methyl-1H-indol-3-yl)thio)benzoic acid]
≤ 500 nM | Cc1c(Sc2cccc(C(=O)O)c2)c2ccc(Cl)c(F)c2n1CC(=O)N1CCC2(CCNC(=O)CC2)CC1 [Compound 1-53, 3-((6-Chloro-7-fluoro-2-methyl-1-(2-oxo-2-(10-oxo-3,9-diazaspiro[5.6]dodecan-3-yl)ethyl)-1H-indol-3-yl)thio)benzoic acid]
≤ 500 nM | COc1ccc2c(c1)CCN2C(=O)Cn1c(C)c(Sc2cccc(C(=O)O)c2)c2ccc(Cl)c(F)c21 [Compound 1-58, 3-((6-Chloro-1-(2-(5-methoxyindolin-1-yl)-2-oxoethyl)-7-fluoro-2-methyl-1H-indol-3-yl)thio)benzoic acid]
500 to 3000 nM | Cc1c(Sc2cccc(C(=O)O)c2)c2ccc(Cl)c(F)c2n1CC(=O)N1CCCC1=O [Compound 1-59, 3-((6-Chloro-7-fluoro-2-methyl-1-(2-oxo-2-(2-oxopyrrolidin-1-yl)ethyl)-1H-indol-3-yl)thio)benzoic acid]
500 to 3000 nM | Cc1c(Sc2cccc(C(=O)O)c2)c2ccc(Cl)c(F)c2n1CC(=O)N1CCC(Cc2ccc(F)cc2)CC1 [Compound 1-60, 3-((6-Chloro-7-fluoro-1-(2-(4-(4-fluorobenzyl)piperidin-1-yl)-2-oxoethyl)-2-methyl-1H-indol-3-yl)thio)benzoic acid]

— patent US9850203B2, “Autotaxin inhibitor compounds” (PharmAkea, Inc., priority 2013, dated 2017)
